Measured values published in patent US8481553B2, “Antimetastatic compounds” (Brigham Young University, priority 2010, dated 2013).

System: MDCK cells
Test: HGF-induced epithelial-mesenchymal transition / migration of MDCK cells on transwell filters (crystal violet densitometry)
Type: cell-based
Details: Canis lupus familiaris, MDCK; test compound 10 μM, then HGF, 24 hours; percentage value like the untreated controls (unstimulated cells = maximal effect, HGF treated cells without compound = nil effect)
Protocol: MDCK cells were seeded at confluency into the wells of a transwell filter in DMEM with 10% fetal bovine serum. Cells were cultured for 24 hours. Test compounds, dissolved in DMSO, were added to each test well to a 10 μM final concentration, and then hepatocyte growth factor (HGF) was then added. The MDCK cells were cultured for 24 hours. Concurrently, controls treated with and without HGF and with no test compounds were also prepared.
After post-HGF addition culturing, transwell filters were prepared by repeated washing using ice cold PBS. The cells were then fixed with paraformaldehyde (3.7%) on ice for 15 minutes to the filters. After fixation, the transwell filters were washed repeatedly with PBS followed by staining with crystal violet for 15 minutes. The transwell filters were washed again with distilled water.
The upper surface of the transwell filters were swabbed using a cotton-tipped probe. The filters were photographed using a gel documentation system. Densitometry measurements were made on the test samples and compared with control samples.

## COc1cc(Cl)cc(/C=C/c2ccc3cccc(O)c3n2)c1OC [Compound B-28]
  inhibition at 10 µM: 100%

## COc1cc(/C=C/c2ccc3cccc(OC(C)=O)c3n2)ccc1O [Compound B-29]
  inhibition at 10 µM: 94.2%

## Oc1cccc2ccc(/C=C/c3ccc4c(c3)OCO4)nc12 [Compound B-30]
  inhibition at 10 µM: 94.4%

## CC(C)Oc1ccc(/C=C/c2ccc3cccc(O)c3n2)cc1 [Compound B-31]
  inhibition at 10 µM: 100%

## COc1cc(/C=C/c2ccc3cccc(O)c3n2)ccc1OCc1ccccc1 [Compound B-32]
  inhibition at 10 µM: 91.8%

## COc1ccc(/C=C/c2ccc3cccc(O)c3n2)cc1C [Compound B-33]
  inhibition at 10 µM: 90.7%

## COc1cccc(/C=C/c2ccc3cccc(O)c3n2)c1 [Compound B-34]
  inhibition at 10 µM: 51.8%

## COc1cc(/C=C/c2ccc3cccc(O)c3n2)cc(OC)c1OC [Compound B-35]
  inhibition at 10 µM: < 5%

## COc1cc(/C=C/c2ccc3cccc(O)c3n2)cc(OC)c1O [Compound B-36]
  inhibition at 10 µM: < 5%
